Where a SMILES comes first, the peptide text is derived from it. Bridges are numbered along the chain shown (N, C = ends).
Columns and labels:
[1] = tested on: aminopeptidase I; test: Proteolytic stability, aminopeptidase I; format: in vitro ADME; details: recommended buffer, RP-HPLC peak area and MALDI-TOF MS, n = 3
Experimental: (§1) Assessments of thermal, acidic and proteolytic stability were performed as previously described. Purified chenotide cQ2 was incubated at the stated conditions and recommended buffer solution. At each time interval, samples were aliquoted in triplicate and RP-UPLC was performed. The area under the peak was used to determine the amount of chenotide present before and after treatment.

[2] = Stability in horse serum; format: in vitro ADME; details: RP-HPLC peak area and MALDI-TOF MS, n = 3
Experimental: as §1

[3] = Stability in human serum; format: in vitro ADME; details: RP-HPLC peak area and MALDI-TOF MS, n = 3
Experimental: as §1

[4] = tested on: pepsin; test: Proteolytic stability, pepsin; format: in vitro ADME; details: recommended buffer, RP-HPLC peak area and MALDI-TOF MS, n = 3
Experimental: as §1

[5] = tested on: Curvularia lunata (CICC 40301); test: Microbroth dilution anti-fungal assay; format: cell-based; details: spores 1 × 10^5 cells/mL in half-strength potato dextrose broth, 25 °C, 24 h, crystal violet, absorbance 570 nm, listed as chenotide cQ2, read-out: IC50 against Curvularia lunata
Experimental: (§2) The half-maximal inhibitory concentration levels (IC50) of peptides were determined by a microbroth dilution assay. Fungal spores were harvested from a 4-day-old actively growing fungal plate and suspended in half-strength potato dextrose broth. Spore suspensions (1 × 10^5 cells/mL) were mixed with peptides at varying concentrations in 96-well microplates and incubated at 25 °C for 24 h. The cells were then fixed with 100% methanol for 15 min and stained for 45 min with crystal violet dye. Excess dye was removed with MilliQ water. Elution was performed using 1:1 (v/v) ethanol/0.1 N HCl. The absorbance was measured at 570 nm.

[6] = tested on: Rhizoctonia solani (CICC 40259); test: Microbroth dilution anti-fungal assay; format: cell-based; details: spores 1 × 10^5 cells/mL in half-strength potato dextrose broth, 25 °C, 24 h, crystal violet, absorbance 570 nm, listed as chenotide cQ2, read-out: IC50 against Rhizoctonia solani
Experimental: as §2

[7] = tested on: Fusarium oxysporum (CICC 2532); test: Microbroth dilution anti-fungal assay; format: cell-based; details: spores 1 × 10^5 cells/mL in half-strength potato dextrose broth, 25 °C, 24 h, crystal violet, absorbance 570 nm, listed as chenotide cQ2, read-out: IC50 against Fusarium oxysporum
Experimental: as §2

[8] = tested on: Alternaria alternata (CICC 2465); test: Microbroth dilution anti-fungal assay; format: cell-based; details: spores 1 × 10^5 cells/mL in half-strength potato dextrose broth, 25 °C, 24 h, crystal violet, absorbance 570 nm, listed as chenotide cQ2, read-out: IC50 against Alternaria alternata
Experimental: as §2

Question: Which results are given for `CC(C)C[C@@H]1NC(=O)CNC(=O)CNC(=O)[C@@H]2CCCN2C(=O)[C@@H]2CSSC[C@@H]3NC(=O)[C@H](Cc4ccccc4)NC(=O)CNC(=O)[C@H](Cc4ccccc4)NC(=O)[C@H](CCCCN)NC(=O)[C@H](CO)NC(=O)[C@H](CSSC[C@H](NC(=O)[C@H](CCC(=O)O)NC(=O)CNC(=O)[C@H](C)N)C(=O)N[C@@H](C(C)C)C(=O)N[C@@H](CCCNC(=N)N)C(=O)NCC(=O)N[C@@H](CCCNC(=N)N)C(=O)N2)NC(=O)[C@H](CSSC[C@@H](C(=O)NCC(=O)NCC(=O)O)NC(=O)[C@H](Cc2ccc(O)cc2)NC(=O)[C@H](C)NC(=O)[C@@H]2CCCN2C(=O)CNC(=O)[C@H](CO)NC(=O)CNC3=O)NC1=O` [cQ2] (H-AGECVRGRCPGGLCCSKFGFCGSGPAYCGG-OH; disulfide 4-15, 9-21, 14-28)?
Answer: Peptide retained after aminopeptidase I treatment [1]: > 80%; Peptide retained after horse serum treatment [2]: > 80%; Peptide retained after human serum treatment [3]: > 80%; Peptide retained after pepsin treatment [4]: > 80%; IC50 [5]: ~5 µM; IC50 [6]: ~3 µM; IC50 [7]: ~0.3 µM; IC50 [8]: ~9 µM

Source: paper PMC8512870, “Anti-Fungal Hevein-like Peptides Biosynthesized from Quinoa Cleavable Hololectins” (Molecules, 2021)
